Laboratory results taken from US20050171004A1, “Use of cardiotrophin-1 to promote wound healing and counteract overt fibrosis” (priority 2003, published 2005).

How the values were obtained:
[1] = system: cardiac fibroblasts; test: Western analysis of myosin light chain phosphorylation; assay type: cell-based, rat; details: co-incubation with inhibitor, 30 minutes
Experimental: (§1) Protein concentrations of tissue and cell lysates were determined by the BCA method (Smith et al., 1985, Anal Biochem 150: 76-85). Proteins were separated by 8-12% SDS-PAGE and transferred to PVDF membrane (Roche, Indianapolis, Ind.) for 1 hour at 300 mA for small proteins or for 2 hours at 500 mA for proteins greater than 100 kDa. Membranes were blocked with 5% non-fat skim milk in tris-buffered saline containing 0.2% Tween 20 (TBST). Proteins were visualized with ECL Plus (Amersham) after probing with primary and secondary antibodies. Band intensity was quantified using a CCD camera imaging densitometer (GS670, Bio-Rad Laboratories (Canada) Ltd. Mississauga, Ontario).
The infarct zone is repopulated by interstitial fibroblasts that infiltrate the scar after MI. […] Similar results were obtained when using the Costar Transwell® system (data not shown). To determine how the chemotactic response is transduced, we used specific inhibitors of intracellular signaling pathways. […] This effect could be blunted by co-incubation with AG490 (FIG. 22). […] Since activation of myosin motors is required for effective cell migration, and CT-1 induced migration could be inhibited by co-incubation with a myosin light chain kinase inhibitor, we sought to determine the effect of CT-1 on the phosphorylation status of myosin light chain. Myosin light chain regulates the ATPase activity of myosin heavy chain, and thus overall contractile activity. […] Myosin light chain phosphorylation could be prevented by co-incubation with ML-7 or W7 but not AG490 or PP2 (FIG. 25b).

[2] = system: cardiac fibroblasts; test: Protein synthesis assay (3H-leucine incorporation); assay type: cell-based, rat; details: co-incubation with inhibitor, CT-1 10 ng/mL
Experimental: Protein synthesis was determined using the methods of Wolf and Neilson (Wolf and Neilson, 1990, Am J Physiol 259: 768-777). 2.5×10^4 cells (counted with a hemacytometer) were loaded into each well of 24-well plates, allowed to attach overnight, then rendered quiescent in serum free DMEM/F12 for 24 hours. Cells were stimulated with CT-1 for an additional 24 hours in the presence of 2 μCi/mL ^3H-leucine with or without inhibitors of signaling pathways. The culture media was aspirated, cells rinsed twice with phosphate buffered saline and proteins precipitated by two incubations with 10% TCA at room temperature. The precipitated protein was solubilized in 300 μl lysis buffer containing 0.5 M NaOH and 1% Triton X-100 at room temperature for 15 minutes. The lysate was transferred to scintillation vials, and beta emission was determined with 3 ml Ecolume scintillation fluid (ICN Pharmaceuticals) and a scintillation counter (LS6500, Beckman Coulter, Fullerton, Calif.).

[3] = system: cardiac fibroblasts; test: Western analysis of phosphorylation of translational regulatory proteins; assay type: cell-based, rat; details: co-incubation with inhibitor
Experimental: as §1
To determine the effect of CT-1 on protein synthesis in cardiac fibroblasts we measured incorporation of ^3H-labeled leucine. […] Since the activity of translational regulatory proteins is modified by phosphorylation, we used phospho-specific antibodies to determine if CT-1 directly influenced the activity of these regulatory proteins.
We then determined the effect of pharmacologic inhibitors on the activation of this signaling cascade.

[4] = system: other kinases; details: cited from earlier work
[5] = system: cardiac fibroblasts; test: Wounded monolayer model, cortactin immunostaining; assay type: cell-based, rat; details: co-incubation with inhibitor
Experimental: Cardiac fibroblasts were seeded onto coverslips in 6-well dishes and allowed to proliferate. Once the cells were near confluency, they were serum deprived for 24 hours. A scrape was made down the middle of the coverslip with the blunt end of a 1 ml syringe and the media was changed again. Cells were further incubated in the presence or absence of CT-1 and inhibitors at specified concentrations for specified times. The cells were then subjected to immunofluorescence staining as described herein.

[6] = system: angiotensinogen mRNA; details: cited from earlier work

NCCCCCCNS(=O)(=O)c1cccc2c(Cl)cccc12 [W7]
effect on CT-1 induced myosin light chain phosphorylation [1]: prevented

CC(C)(C)n1nc(-c2ccc(Cl)cc2)c2c(N)ncnc21 [PP2]
effect on CT-1 induced myosin light chain phosphorylation [1]: not

O=S(=O)(c1cccc2c(I)cccc12)N1CCCNCC1 [ML-7]
effect on CT-1 induced myosin light chain phosphorylation [1]: prevented

COc1cccc(-c2cc(=O)c3ccccc3o2)c1N [PD98059]
effect on CT-1 induced protein synthesis (3H-leucine uptake) [2]: suppressed
effect on CT-1 induced phosphorylation of Akt, mTOR, p70 S6 kinase, 4EB-P1 and S6 ribosomal protein [3]: lesser effect
effect on basal and CT-1 induced phosphorylation of ERK 1/2, Mnk1, and eIF4E [3]: greatest inhibitory effect
concentration at which selectivity is maintained [4]: ≤ 50 µM

N#C/C(=C\c1ccc(O)c(O)c1)C(=O)NCc1ccccc1 [AG490, Tyrphostin B42]
effect on CT-1 induced protein synthesis (3H-leucine uptake) [2]: suppressed
effect on CT-1 induced activation of ERK 1/2, p38 MAPK, mTOR, p70 S6 kinase S421/T424, or S6 ribosomal protein [3]: did not significantly affect
effect on CT-1 induced phosphorylation of Akt at both sites, p70 S6 kinase T389, Mnk1, eIF4E and 4E-BP1 [3]: suppressed
effect on CT-1 induced cortactin localization at the leading edge [5]: blunted
effect on CT-1 induced myosin light chain phosphorylation [1]: not
angiotensinogen mRNA production in response to CT-1 stimulation [6]: attenuate

C[S+]([O-])c1ccc(-c2nc(-c3ccncc3)c(-c3ccc(F)cc3)[nH]2)cc1 (stereo not drawn) [SB203580]
effect on CT-1 induced protein synthesis (3H-leucine uptake) [2]: suppressed
effect on CT-1 induced phosphorylation of Akt, p70 S6 kinase and Mnk1 [3]: suppressed
